The source of these data is US10676468B2, “N-(3-heteroarylaryl)-4-arylarylcarboxamides and analogs as hedgehog pathway inhibitors and use thereof” (IMPACT Therapeutics, Inc., priority 2012, dated 2020).

Assay [1] concerns Hedgehog Signaling Pathway. The assay is described as follows: SHH-induced differentiation of C3H10T1/2 cells into osteoblastic cells, intracellular alkaline phosphatase activity. As to conditions: 10 nM SHH-N, 5 days, alkaline phosphatase activity (OD405), read-out: IC50 values of compounds that inhibit Hh pathway. The class given is cell-based, mouse. As for the experimental part:
The Application of SHH to Induce Pluripotent Mesenchymal Mouse Embryonic Cell C3H10T1/2 to Differentiate into Osteoblastic Cells for the Determination of the Inhibitory Activity of N-(3-(1H-benzo[d]imidazol-2-yl)-4-chlorophenyl)-2-methyl-4-((2S,6R)-2,6-dimethylmorpholino)benzamide and Analogs on Hedgehog Signaling Pathway
The C3H10T1/2 cells were grown in DMEM medium supplemented with 10% fetal bovine serum (FBS, Hyclone) at 37° C. with 5% CO2. 10000 cells were sown to each well of a 96-well microplate a day before the experiment and grown overnight. […] The reference compound and testing compounds were serially diluted 1 to 3 and 1 to 10 in DMSO to seven concentrations with the eighth concentration being DMSO. A 10-fold dilution was prepared by mixing 10 μL of the DMSO dilutions with 90 μL of fresh growing medium. Pre-sown cells were taken out from incubator and the medium was removed. To each well, 180 μL of inducing medium containing 10 nM of SHH-N was added and followed immediately with 20 μL of 10× testing or reference compound dilutions. The testing compound concentrations are between 10 μM and 10 nM. The cells were then returned to CO2 incubator to grow additional 5 days at 37° C.
(§1) After incubating for 5 days, the cells were taken out and intracellular alkaline phosphatase activity was tested. The alkaline phosphatase activity was measured as follows:
3) Preparation of Substrate Solution:
(§2) Solution A: A 0.5 mM MgCl2 (Sigma Prod. No. M-0250) solution was prepared.
(§3) After the pH value was adjusted to 9.8 with 5 M HCl at 37° C., the total volume was adjusted to 100 mL.
(§4) After it is completely dissolved the total volume was adjusted to 10 mL with the final concentration being 1 mM.
Substrate reaction medium: to 10 mL of solution B, 250 μL of solution A and 200 μL of solution C were added, and mixed well.
4) The Measurement of Intracellular Alkaline Phosphatase Activity:
(§5) After taking out the cells from the incubator, the cell culture medium was removed and cells were washed twice with PBS. 20 μL of lysis solution (0.2% Triton solution) was added to each well. After being shaken for 30 min at room temperature, each well of cells received 80 μL of substrate reaction medium. The microplate was placed immediately into a VariSkan Flashplate reader and absorbance at OD405 was read as background reading. The plate was replaced back to cell culture incubator at 37° C. for additional 30 min and the absorbance was read again using VariSkan Flash plate reader at OD405.
The data were analyzed by subtracting the background reading from the reading at 30 min, and the obtained numbers were plotted and analyzed with Prism 5 software (GraphPad). The phosphatase activity (calculated OD405) was plotted against the log concentration of testing compound, and the obtained plot was fitted with non-linear curve fitting equation to calculate IC50 values. The curve fitting equation is Y=Bottom+(Top−Bottom)/(1+10^(X−Log IC50)). X is the logarithm of concentration. Y is the measure of alkaline phosphatase activity (OD405).
(§6) The calculated IC50 value is a measurement of the inhibitory activity of compound to Hh pathway.

In assay [2] the test system is Hedgehog Signaling Pathway. Put plainly: SAG-induced differentiation of C3H10T1/2 cells into osteoblastic cells, intracellular alkaline phosphatase activity. The class given is cell-based, mouse. The conditions noted are these: 1 μM SAG, 5 days, alkaline phosphatase activity (OD405), read-out: IC50 values of compounds that inhibit Hh pathway.
Description: The Application of SAG to Induce Pluripotent Mesenchymal Mouse Embryonic Cell C3H/10T1/2 to Differentiate into Osteoblastic Cells for the Determination of the Inhibitory Activity of N-(3-(1H-benzo[d]imidazol-2-yl)-4-chlorophenyl)-2-methyl-4-((2S,6R)-2,6-dimethylmorpholino)benzamide and Analogs on Hedgehog Signaling Pathway
The intracellular alkaline phosphatase activity is a reliable indication of the differentiation process. Therefore this enzymatic activity can be used to monitor the activity of hedgehog pathway inhibitors.
The C3H10T1/2 cells were grown in DMEM medium supplemented with 10% fetal bovine serum (FBS, Hyclone) at 37° C. with 5% CO2. 10000 cells were sown to each well of a 96-well microplate a day before the experiment and grown overnight. At the day of experiment, the inducing medium and inhibitor solutions were prepared as follows: the reference compound and testing compounds were serially diluted 1 to 3 and 1 to 10 in DMSO to seven concentrations with the eighth concentration being DMSO. A 10-fold dilution was prepared by mixing 10 μL of the DMSO dilution with 90 μL of fresh growing medium. […] Pre-sown cells were taken out from incubator and the medium was removed. To each well, 180 μL inducing medium was added and followed immediately with 20 μL of testing or reference compound dilutions. The testing compound concentrations are between 10 μM and 1 nM. The cells were then return to CO2 incubator to grow additional 5 days at 37° C.
as §1
1) Preparation of Substrate Solution:
as §2, §3, §4
Substrate reaction medium: To 10 mL of solution B, 250 μL of solution A and 200 μL of solution C were added, and mixed well.
2) the Measurement of Intracellular Alkaline Phosphatase Activity:
as §5
The data were analyzed by subtracting the background reading from the reading at 30 min, and the obtained numbers were plotted and analyzed with Prism 5 software (GraphPad). The phosphatase activity (calculated OD405) was plotted against the log concentration of testing compound, and the obtained plot was fitted with non-linear curve fitting equation to calculate IC50 values. The curve fitting equation is Y=Bottom+(Top−Bottom)/(1+10^((X−Log IC50))). X is the logarithm of concentration. Y is the measure of alkaline phosphatase activity (OD405).
as §6

[3] abbreviates: Mus musculus, C3H 10T1/2, 120 h.

Where only a bound is given, the exact number is not on record here.

As for `Cc1cc(-c2ccc(C(F)(F)F)cc2)ccc1C(=O)N(C)c1ccc(Cl)c(-c2nc3ccccc3[nH]2)c1` [Example 48, N-(3-(1H-benzo[d]imidazol-2-yl)-4-chlorophenyl)-N,3-dimethyl-4′-(trifluoromethyl)biphenyl-4-carboxamide], the IC50 in assay [1] (setting [3]) and in assay [2] (setting [3]) was above 10 µM each time.

For “N-(3-(imidazo[1,2-a]pyridin-2-yl)-4-chlorophenyl)-3-methyl-4′-(trifluoromethyl)biphenyl-4-carboxamide [Example 67]”, the 50% inhibitory concentration (IC50) in assay [1] was 0.068 µM; in assay [2], above 10 µM.

Consider `O=C(Nc1ccc(Cl)c(-c2nc3ccccc3[nH]2)c1)c1ccc(-c2ccc(C(F)(F)F)cc2)cc1F` [Example 17, N-(3-(1H-benzo[d]imidazol-2-yl)-4-chlorophenyl)-3-fluoro-4′-(trifluoromethyl)biphenyl-4-carboxamide], for which the IC50 in assay [1] (setting [3]) came out at 0.015 µM; in assay [2] (setting [3]), 0.081 µM.

Regarding `C[C@@H]1CN(c2ccc3c(=O)n(-c4ccc(Cl)c(-c5nc6ccccc6[nH]5)c4)cnc3c2)C[C@H](C)O1` [Example 34, 3-(3-(1H-benzo[d]imidazol-2-yl)-4-chlorophenyl)-7-((2S,6R)-2,6-dimethylmorpholino)quinazolin-4(3H)-one], the IC50 in assay [1] (setting [3]) was found to be 0.162 µM; in assay [2] (setting [3]), 0.263 µM.

For `C[C@@H]1CN(c2ccc(C(=O)Nc3ccc(Cl)c(-c4nnc5cnccn45)c3)cn2)C[C@H](C)O1` [Example 58, N-(3-([1,2,4]triazolo[4,3-a]pyrazin-3-yl)-4-chlorophenyl)-6-((2S,6R)-2,6-dimethylmorpholino)nicotinamide], the half-maximal inhibitory concentration (IC50) in assay [1] (setting [3]) and in assay [2] (setting [3]) was above 10 µM throughout.

For the compound `Cc1cc(-c2cccc(C#N)c2)ccc1C(=O)Nc1ccc(Cl)c(-c2nc3ccccc3[nH]2)c1` [Example 11, N-(3-(1H-benzo[d]imidazol-2-yl)-4-chlorophenyl)-3-methyl-3′-cyanobiphenyl-4-carboxamide], the IC50 in assay [1] (setting [3]) was 0.0017 µM; in assay [2] (setting [3]) it was 0.031 µM.

Consider `Cc1cc(-c2ccc(C(F)(F)F)cc2)ccc1C(=O)Nc1cc(Cl)cc(-c2nc3ccccc3[nH]2)c1` [Example 63, N-(3-(1H-benzo[d]imidazol-2-yl)-5-chlorophenyl)-3-methyl-4′-(trifluoromethyl)biphenyl-4-carboxamide], for which the IC50 turned out to be 0.039 µM in assay [1] (setting [3]) and 1.34 µM in assay [2] (setting [3]).

In the case of `O=c1[nH]c2cc(-c3ccc(C(F)(F)F)cc3)ccc2c(=O)n1-c1ccc(Cl)c(-c2nc3ccccc3[nH]2)c1` [Example 26, 3-(3-(1H-benzo[d]imidazol-2-yl)-4-chlorophenyl)-7-(4-(trifluoromethyl)phenyl)quinazoline-2,4(1H,3H)-dione], the IC50 in assay [1] (setting [3]) and in assay [2] (setting [3]) was above 10 µM in each case.

For the compound `C[C@@H]1CN(c2ccc(C(=O)Nc3cccc(-c4cn5cccnc5n4)c3)cn2)C[C@H](C)O1` [Example 57, N-(3-(imidazo[1,2-a]pyrimidin-2-yl)phenyl)-6-((2S,6R)-2,6-dimethylmorpholino)nicotinamide], the IC50 in assay [1] (setting [3]) and in assay [2] (setting [3]) was above 10 µM in each case.

With `Cc1cc(-c2ccc(C(F)(F)F)cc2)ccc1C(=O)Nc1cc(-c2nc3ccccc3[nH]2)cc(C(F)(F)F)c1` [Example 62, N-(3-(1H-benzo[d]imidazol-2-yl)-5-(trifluoromethyl)phenyl)-3-methyl-4′-(trifluoromethyl)biphenyl-4-carboxamide], the results for the IC50 in assay [1] (setting [3]) and in assay [2] (setting [3]) were 0.409 µM and above 10 µM, respectively.

On to `O=C1c2ccc(-c3ccc(C(F)(F)F)cc3)cc2OCN1c1ccc(Cl)c(-c2nc3ccccc3[nH]2)c1` [Example 28, 3-(3-(1H-benzo[d]imidazol-2-yl)-4-chlorophenyl)-7-(4-(trifluoromethyl)phenyl)-2H-benzo[e][1,3]oxazin-4(3H)-one], for which the values for the IC50 in assay [1] (setting [3]) and in assay [2] (setting [3]) were 0.059 µM and 0.228 µM, respectively.

Take `CC(=O)c1ccc(-c2ccc(C(=O)Nc3ccc(Cl)c(-c4nc5ccccc5[nH]4)c3)c(C)c2)cc1` [Example 9, N-(3-(1H-benzo[d]imidazol-2-yl)-4-chlorophenyl)-3-methyl-4′-acetylbiphenyl-4-carboxamide]: the IC50 in assay [1] (setting [3]) came out at 0.043 µM; in assay [2] (setting [3]), 0.156 µM.

`Cc1cc(-c2ccc(C(F)(F)F)cc2)ccc1C(=O)Nc1cccc(-c2nc3ccccn3n2)c1` [Example 73, N-(3-([1,2,4]triazolo[1,5-a]pyridin-2-yl)phenyl)-3-methyl-4′-(trifluoromethyl)biphenyl-4-carboxamide]: the IC50 in assay [1] (setting [3]) is 0.134 µM; in assay [2] (setting [3]) it was 0.163 µM.

For the compound `Cc1cc(-c2ccc(C(F)(F)F)cc2)ccc1C(=O)Nc1ccc(F)c(-c2nc3ccccc3[nH]2)c1` [Example 74, N-(3-(1H-benzo[d]imidazol-2-yl)-4-fluorophenyl)-3-methyl-4′-(trifluoromethyl)biphenyl-4-carboxamide], the results for the IC50 in assay [1] (setting [3]) and in assay [2] (setting [3]) were 0.0045 µM and 0.191 µM, respectively.

With `Cc1cc(-c2ccc(C(F)(F)F)cc2)ccc1C(=O)Nc1cccc(-c2nc3ccccc3[nH]2)c1` [Example 45, N-(3-(1H-benzo[d]imidazol-2-yl)phenyl)-3-methyl-4′-(trifluoromethyl)biphenyl-4-carboxamide], the IC50 turned out to be 0.02 µM in assay [1] (setting [3]) and 0.284 µM in assay [2] (setting [3]).

As for `Cc1cc(-c2ccc(C(F)(F)F)cc2)ccc1C(=O)Nc1ccc(Br)c(-c2nc3ccccc3[nH]2)c1` [Example 75, N-(3-(1H-benzo[d]imidazol-2-yl)-4-bromophenyl)-3-methyl-4′-(trifluoromethyl)biphenyl-4-carboxamide], the figures for the IC50 in assay [1] (setting [3]) and in assay [2] (setting [3]) were 0.0029 µM and 0.017 µM, respectively.

Regarding `Cc1cc(-c2ccc(C(F)(F)F)cc2)ccc1C(=O)Nc1ccc(Cl)c(-c2nnc3ncccn23)c1` [Example 53, N-(3-([1,2,4]triazolo[4,3-a]pyrimidin-3-yl)-4-chlorophenyl)-3-methyl-4′-(trifluoromethyl)biphenyl-4-carboxamide], the IC50 in assay [1] (setting [3]) and in assay [2] (setting [3]) was above 10 µM each time.

For the compound `Cc1cc(-c2ccc(C(F)(F)F)cc2)cc(C)c1C(=O)Nc1ccc(Cl)c(-c2nc3ccccc3[nH]2)c1` [Example 20, N-(3-(1H-benzo[d]imidazol-2-yl)-4-chlorophenyl)-3,5-dimethyl-4′-(trifluoromethyl)biphenyl-4-carboxamide], the IC50 in assay [1] (setting [3]) was 0.059 µM; in assay [2] (setting [3]) it was above 10 µM.
